Laboratory results from US20130196984A1, “3-AMINO-5-PHENYL-56-DIHYDRO-2H-[1,4]OXAZINES” (Siena Biotech S.p.A., priority 2009, published 2013).
Structures can show the parent of a compound that is named as a salt.

What was measured:
BACE1 [1] = target: T1, BACE1 (Homo sapiens, UniProt P56817); assay: Assay A: binding studies using SPR based methods, immobilised BACE1; parameters: 6his-tagged full length BACE 1 expressed in SF9 cells; 6His; made in house; host or cells: SF9 insect cells; conditions: CM5 chip, immobilised 6his-tagged full length BACE 1, acetate buffer pH 4.6, 4% DMSO;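 also: KD from a 1:1 kinetic fit (koff/kon) of real-time association and dissociation curves, or for fast binders from end-of-association equilibrium responses plotted against log concentration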
BACE2 [2] = target: T2, BACE2 (Homo sapiens, UniProt Q9Y5Z0); assay: Assay A: binding studies using SPR based methods, immobilised BACE2; conditions: CM5 chip, immobilised BACE2 enzyme ectodomain, acetate buffer pH 4.6, 4% DMSO
T2 construct: BACE2 enzyme ectodomain (derived from plasmid “pET17b-T7-hu proBACE2”); T7 (N); made in house
T2 sequence (Q9Y5Z0 63-473 limits assumed): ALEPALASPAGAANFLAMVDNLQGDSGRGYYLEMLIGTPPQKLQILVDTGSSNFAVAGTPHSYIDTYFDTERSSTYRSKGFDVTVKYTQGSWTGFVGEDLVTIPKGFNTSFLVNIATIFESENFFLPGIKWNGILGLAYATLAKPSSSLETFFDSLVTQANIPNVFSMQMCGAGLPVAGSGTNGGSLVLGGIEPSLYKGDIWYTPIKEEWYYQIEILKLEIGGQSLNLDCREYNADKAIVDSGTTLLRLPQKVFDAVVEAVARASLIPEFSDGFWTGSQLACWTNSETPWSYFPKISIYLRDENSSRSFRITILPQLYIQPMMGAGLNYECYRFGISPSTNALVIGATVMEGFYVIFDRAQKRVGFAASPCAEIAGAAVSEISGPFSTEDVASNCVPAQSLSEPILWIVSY

BACE2 [3] = target: T3, BACE2 (Rattus norvegicus, UniProt Q6IE75); assay: Assay for BACE inhibition by measuring cellular TMEM27 cleavage; assay type: cell-based; conditions: INS-TMEM27 (INS1e-derived) cells, ELISA of shed human TMEM27 in supernatant;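 also: inhibitor added 2 h before doxycycline-induced hTMEM27 expression, supernatant collected after further 46 h, endogenous BACE2 activity read as reduced TMEM27 shedding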
T3 construct: endogenous cellular BACE2 in the Ins1e rat cell line; endogenous in cells; host or cells: INS-TMEM27 (INS1e-derived rat cell line with doxycycline-inducible full-length hTMEM27)
T3 sequence (Q6IE75 63-514): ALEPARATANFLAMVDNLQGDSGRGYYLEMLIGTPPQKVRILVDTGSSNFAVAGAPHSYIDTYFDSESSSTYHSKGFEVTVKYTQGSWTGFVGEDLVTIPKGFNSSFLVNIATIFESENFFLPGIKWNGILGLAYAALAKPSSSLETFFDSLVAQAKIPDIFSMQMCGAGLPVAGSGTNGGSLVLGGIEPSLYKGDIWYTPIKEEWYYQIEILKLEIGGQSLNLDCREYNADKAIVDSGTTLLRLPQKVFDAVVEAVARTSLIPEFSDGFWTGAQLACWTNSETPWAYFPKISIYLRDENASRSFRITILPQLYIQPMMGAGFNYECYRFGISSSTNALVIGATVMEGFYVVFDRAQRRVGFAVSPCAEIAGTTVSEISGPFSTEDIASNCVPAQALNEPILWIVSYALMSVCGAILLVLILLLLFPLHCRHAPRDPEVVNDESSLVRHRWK

BACE1 [4] = target: T1, BACE1; assay: Cellular Abeta-lowering assay; assay type: cell-based; parameters: endogenous in cells; host or cells: HEK293 stably transfected with human APP695 wt; conditions: HEK293 cells stably transfected with human APP wt (APP695), Aβ40 ELISA of supernatant after 18-20 hrs

T1 sequence (P56817 46-501): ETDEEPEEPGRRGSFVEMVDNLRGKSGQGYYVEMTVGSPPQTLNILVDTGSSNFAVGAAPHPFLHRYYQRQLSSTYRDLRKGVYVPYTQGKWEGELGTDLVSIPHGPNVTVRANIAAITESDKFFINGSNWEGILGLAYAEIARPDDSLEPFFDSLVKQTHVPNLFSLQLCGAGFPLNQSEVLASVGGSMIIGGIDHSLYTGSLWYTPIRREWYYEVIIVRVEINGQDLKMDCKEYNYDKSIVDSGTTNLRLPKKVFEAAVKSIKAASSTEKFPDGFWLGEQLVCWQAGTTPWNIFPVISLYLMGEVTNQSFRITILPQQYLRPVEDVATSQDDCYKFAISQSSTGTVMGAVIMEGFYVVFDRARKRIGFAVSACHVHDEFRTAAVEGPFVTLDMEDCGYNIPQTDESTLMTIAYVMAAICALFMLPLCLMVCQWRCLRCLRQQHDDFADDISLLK

| SMILES | Kd (BACE1 [1]) [µM] | Kd (BACE2 [2]) [µM] | IC50 (BACE2 [3]) [µM] | IC50 (BACE1 [4]) [µM] |
| --- | --- | --- | --- | --- |
| C[C@@]1(c2cc(NC(=O)c3ncc(F)cc3F)ccc2F)COCC(N)=N1 [Example 41, 3,5-difluoro-pyridine-2-carboxylic acid [3-((R)-5-amino-3-methyl-3,6-dihydro-2H-[1,4]oxazin-3-yl)-4-fluoro-phenyl]-amide] | 0.054 | 0.006 | 0.004 | 0.026 |
| Cc1cc(Cl)cnc1C(=O)Nc1ccc(F)c([C@]2(C)COCC(N)=N2)c1 [Example 98, 5-chloro-3-methyl-pyridine-2-carboxylic acid [3-((R)-5-amino-3-methyl-3,6-dihydro-2H-[1,4]oxazin-3-yl)-4-fluoro-phenyl]-amide] | 0.014 | 0.004 | 0.001 | 0.007 |
| C[C@@]1(c2cc(NC(=O)c3ccc(F)cn3)ccc2F)COCC(N)=N1 [Example 99, 5-fluoro-pyridine-2-carboxylic acid [3-((R)-5-amino-3-methyl-3,6-dihydro-2H-[1,4]oxazin-3-yl)-4-fluoro-phenyl]-amide] | 0.046 | 0.008 | 0.003 | 0.017 |
| C[C@@]1(c2cc(NC(=O)c3sccc3Cl)ccc2F)COCC(N)=N1 [Example 46, 3-chloro-thiophene-2-carboxylic acid [3-((R)-5-amino-3-methyl-3,6-dihydro-2H-[1,4]oxazin-3-yl)-4-fluoro-phenyl]-amide] | 10.8 | 0.629 | 0.72 | 1.35 |
| Cc1cc(C(=O)Nc2cccc(C3(C)COCC(N)=N3)c2)c(C)s1 (racemic) [Example 9, (RS)-2,5-dimethyl-thiophene-3-carboxylic acid [3-(5-amino-3-methyl-3,6-dihydro-2H-[1,4]oxazin-3-yl)-phenyl]-amide] | 0.717 | 0.063 | 0.043 | 0.058 |
| NC1=NC(c2cc(NC(=O)c3ccc(Cl)cn3)ccc2F)(C2CC2)COC1 (racemic) [Example 22, (RS)-5-Chloro-pyridine-2-carboxylic acid [3-(5-amino-3-cyclopropyl-3,6-dihydro-2H-[1,4]oxazin-3-yl)-4-fluoro-phenyl]-amide] | 0.14 | 0.019 | 0.011 | 0.011 |
| CC(C)C(=O)Nc1ccc(F)c([C@]2(C)COCC(N)=N2)c1 [Example 88, N-[3-((R)-5-amino-3-methyl-3,6-dihydro-2H-[1,4]oxazin-3-yl)-4-fluoro-phenyl]-isobutyramide formate] | > 10 | 3.45 | 0.56 | 2.76 |
| CCC(=O)Nc1ccc(F)c([C@]2(C)COCC(N)=N2)c1 [Example 94, N-[3-((R)-5-amino-3-methyl-3,6-dihydro-2H-[1,4]oxazin-3-yl)-4-fluoro-phenyl]-propionamide formate] | 2.7 | 1.95 | 1.08 | 1.4 |
| C[C@@]1(c2cc(NC(=O)c3ccc(C#N)cn3)ccc2F)COCC(N)=N1 [Example 72, 5-cyano-pyridine-2-carboxylic acid [3-((R)-5-amino-3-methyl-3,6-dihydro-2H-[1,4]oxazin-3-yl)-4-fluoro-phenyl]-amide hydrochloride] | 0.016 | 0.025 | 0.039 | 0.003 |
| C[C@@]1(c2cc(NC(=O)c3cnc(C(F)(F)F)cn3)ccc2F)COCC(N)=N1 [Example 81, 5-trifluoromethyl-pyrazine-2-carboxylic acid [3-((R)-5-amino-3-methyl-3,6-dihydro-2H-[1,4]oxazin-3-yl)-4-fluoro-phenyl]-amide formate] | 0.102 | 0.256 | 0.21 | 0.047 |
| CC1(C)OCC(N)=N[C@]1(C)c1cc(NC(=O)c2ccc(OCC(F)(F)F)cn2)ccc1F [Example 50, 5-(2,2,2-trifluoro-ethoxy)-pyridine-2-carboxylic acid [3-((R)-5-amino-2,2,3-trimethyl-3,6-dihydro-2H-[1,4]oxazin-3-yl)-4-fluoro-phenyl]-amide] | 0.9 | 2.1 | 1.4 | 0.039 |
| C[C@@]1(c2cc(NC(=O)C(F)F)ccc2F)COCC(N)=N1 [Example 91, N-[3-((R)-5-amino-3-methyl-3,6-dihydro-2H-[1,4]oxazin-3-yl)-4-fluoro-phenyl]-2,2-difluoro-acetamide formate] | 0.994 | 1.14 | 0.095 | 1.46 |
| CC1(c2cccc(NC(=O)c3cccc(Cl)c3)c2)COCC(N)=N1 (racemic) [Example 6, (RS)—N-[3-(5-amino-3-methyl-3,6-dihydro-2H-[1,4]oxazin-3-yl)-phenyl]-3-chloro-benzamide] | 6.9 | 0.23 | 0.66 | 1.53 |
| C[C@@]1(c2cc(NC(=O)c3ncccc3F)ccc2F)COCC(N)=N1 [Example 37, 3-fluoro-pyridine-2-carboxylic acid [3-((R)-5-amino-3-methyl-3,6-dihydro-2H-[1,4]oxazin-3-yl)-4-fluoro-phenyl]-amide] | 0.283 | 0.02 | 0.017 | 0.24 |
| C[C@@]1(c2cc(NC(=O)c3ccc(Cl)cn3)ccc2F)CO[C@@H](Cc2ccccc2)C(N)=N1 (racemic) [Example 29, 5-Chloro-pyridine-2-carboxylic acid [3-((3R,6S)— and (3S,6R)-5-amino-6-benzyl-3-methyl-3,6-dihydro-2H-[1,4]oxazin-3-yl)-4-fluoro-phenyl]-amide] | 0.058 | 0.006 | 0.14 | 0.05 |
| C[C@@]1(c2cc(NC(=O)c3ncco3)ccc2F)COCC(N)=N1 [Example 80, oxazole-2-carboxylic acid [3-((R)-5-amino-3-methyl-3,6-dihydro-2H-[1,4]oxazin-3-yl)-4-fluoro-phenyl]-amide] | 2.27 | 0.045 | 0.084 | 0.7 |
| CC1(c2cccc(NC(=O)c3ccc(Cl)s3)c2)COCC(N)=N1 (racemic) [Example 8, (RS)-5-chloro-thiophene-2-carboxylic acid [3-(5-amino-3-methyl-3,6-dihydro-2H-[1,4]oxazin-3-yl)-phenyl]-amide] | 1.49 | 0.106 | 0.36 | 0.327 |
| C[C@@]1(c2cc(NC(=O)C3CC3(F)F)ccc2F)COCC(N)=N1 (mixture of isomers) [Example 53, (RS)-2,2-difluoro-cyclopropanecarboxylic acid [3-((R)-5-amino-3-methyl-3,6-dihydro-2H-[1,4]oxazin-3-yl)-4-fluoro-phenyl]-amide] | 3.95 | 1.22 | 0.91 | 0.62 |
| CC1(c2cc(NC(=O)c3cc(-c4ccco4)on3)ccc2F)COCC(N)=N1 (racemic) [Example 75, 5-Furan-2-yl-isoxazole-3-carboxylic acid [3-((RS)-5-amino-3-methyl-3,6-dihydro-2H-[1,4]oxazin-3-yl)-4-fluoro-phenyl]-amide] | 0.261 | 2.15 | > 10 | 0.11 |
| CC(F)(F)C(=O)Nc1ccc(F)c([C@]2(C)COCC(N)=N2)c1 [Example 90, N-[3-((R)-5-amino-3-methyl-3,6-dihydro-2H-[1,4]oxazin-3-yl)-4-fluoro-phenyl]-2,2-difluoro-propionamide formate] | 0.148 | 0.15 | 1.22 | 0.22 |
| C[C@@]1(c2cc(NC(=O)C(F)C(F)(F)F)ccc2F)COCC(N)=N1 (mixture of isomers) [Example 89, formate] | 0.805 | – | 0.82 | 0.5 |
